Source: ChEMBL document CHEMBL1201862, “PubChem BioAssay data set” (2004)
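Tested at 5 concentrations; 48 h exposure; 96-well plates; endpoints linearly interpolated, else capped at highest concentration. The concentration for 50% growth inhibition is given as GI50.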 The source made the active and inactive calls. Cut-off read from the data, not from the text of the source: active = GI50 up to about 1.1 µM and inactive = higher.

Experiments:
Assay in all cases: inhibition of tumour cell growth, NCI panel, 48 h
HOP-18 = system: HOP-18
SNB-78 = system: SNB-78
RXF 631 = system: RXF 631
XF498 = system: XF498
DLD-1 = system: DLD-1
KM-20L2 = system: KM-20L2
LXFL 529 = system: LXFL 529
DMS-273 = system: DMS-273
DMS-114 = system: DMS-114

Measured: GI50

C/C(CN1C(=O)c2ccccc2C1=O)=N\NS(=O)(=O)c1ccc(Cl)cc1
inactive: HOP-18 > 100 µM | SNB-78 > 100 µM | RXF 631 > 100 µM | XF498 > 100 µM | DLD-1 > 100 µM | KM-20L2 > 100 µM | LXFL 529 > 100 µM | DMS-273 > 100 µM

CC(=O)C1C(=O)C(=O)N(CCN2C(=O)C(=O)C(C(C)=O)C2=O)C1=O (stereo not drawn)
inactive: HOP-18 > 100 µM | RXF 631 > 100 µM | XF498 > 100 µM | KM-20L2 > 100 µM | LXFL 529 > 100 µM | DMS-114 > 100 µM | DMS-273 > 100 µM

O=C1[C@H]2ON(c3ccccc3)C(c3ccccc3)[C@H]2C(=O)N1c1ccc(Cc2ccc(N3C(=O)[C@@H]4ON(c5ccccc5)C(c5ccccc5)[C@@H]4C3=O)cc2)cc1 (stereo partly drawn)
inactive: HOP-18 > 100 µM | SNB-78 > 100 µM | RXF 631 > 100 µM | DLD-1 > 100 µM | KM-20L2 > 100 µM | LXFL 529 > 100 µM | DMS-114 > 100 µM | DMS-273 > 100 µM

COc1c(C2=NC(C(C)C)CO2)ccc2ccccc12 (stereo not drawn)
inactive: SNB-78 79.4 µM | RXF 631 39.5 µM | XF498 30.4 µM | DLD-1 16.1 µM | KM-20L2 42.1 µM | LXFL 529 19.2 µM | DMS-273 23 µM

NS(=O)(=O)c1ccc(NC(=O)c2cccc3c(=O)c4ccccc4[nH]c23)cc1
inactive: HOP-18 > 100 µM | SNB-78 49.3 µM | XF498 11.5 µM | DLD-1 > 100 µM | KM-20L2 38.6 µM | LXFL 529 30.6 µM | DMS-114 74.8 µM | DMS-273 70.1 µM

COc1cccc(N2C(=O)[C@H]3[C@H]4CC(C(C)(C)C)CC[C@H]4c4c([nH]c5ccccc45)[C@H]3C2=O)c1 (stereo partly drawn)
inactive: SNB-78 14.5 µM | RXF 631 17.6 µM | DLD-1 22.5 µM | LXFL 529 20 µM | DMS-114 17.7 µM | DMS-273 18.3 µM

FC(F)(F)c1nc2ccc3[nH]c4c(-c5ccccc5)nccc4c3c2[nH]1
inactive: HOP-18 > 100 µM | SNB-78 > 100 µM | RXF 631 > 100 µM | XF498 > 100 µM | DLD-1 > 100 µM | KM-20L2 > 100 µM | LXFL 529 > 100 µM | DMS-114 > 45.4 µM

Cc1ccc(Nc2nc3c(s2)C(=O)c2ccccc2C3=O)cc1
inactive: HOP-18 1.13 µM | SNB-78 2.49 µM | RXF 631 1.95 µM | XF498 1.94 µM | DLD-1 2.07 µM | KM-20L2 17.5 µM | LXFL 529 1.63 µM | DMS-114 1.52 µM | DMS-273 1.95 µM

O=C(/C(=C/c1ccccc1)c1ccccc1)N1c2ccccc2CC1c1c[nH]c2ccccc12 (stereo not drawn)
inactive: SNB-78 9.2 µM | XF498 3.05 µM | DLD-1 53.2 µM | KM-20L2 26.8 µM | LXFL 529 8.3 µM | DMS-114 5.7 µM | DMS-273 7.83 µM

CC(=O)OC12CCCCC1C1(CCCC1)NC2=O (stereo not drawn)
inactive: HOP-18 > 100 µM | SNB-78 > 100 µM | XF498 > 100 µM | DLD-1 > 100 µM | KM-20L2 > 100 µM | LXFL 529 > 100 µM | DMS-114 > 100 µM

Cc1nc2ccccc2c(=O)n1/N=C(\N=N\c1cc(Cl)ccc1Cl)c1cccc(-c2ccco2)c1
inactive: HOP-18 > 100 µM | RXF 631 > 100 µM | DLD-1 87.9 µM | DMS-114 41.4 µM | DMS-273 63.2 µM

O=S(=O)(N/N=C/c1ccc(Cl)c(Cl)c1)c1ccccc1
inactive: HOP-18 36.3 µM | SNB-78 41.5 µM | XF498 32.2 µM | DLD-1 31.3 µM | KM-20L2 62.1 µM | LXFL 529 30.4 µM | DMS-114 23.8 µM | DMS-273 37.7 µM
